# According to patent EP0427843B1, “SPECIFIC INHIBITOR FOR RETROVIRUS REVERSE TRANSCRIPTASE, AND ITS APPLICATION AS A MEDICAMENT” (BLOUGH, Herbert A., Dr., priority 1989, dated 1990):
# “Also recorded” adds a separate entry of the source. Read-outs that look alike come from different tables or passages of the source.
# What was measured:
# HIV-RT = biological target: T1, HIV-RT (Human immunodeficiency virus type 1 group M subtype B, UniProt P03366); assay type: biochemical; conditions: for effet inhibiteur sur la HIV1-RT: qualitative, autoradiogram, aurothiopropanol 0 à 2 mM (Figure 7), AZT 0,1 »M à 1 mM (Figure 8)
# T1 construct: Transcriptase inverse: l'enzyme active du point de vue enzymatique, purifiée, clonée, a été préparée dans Escherichia coli; made in house; host or cells: Escherichia coli
# Text: (§1) Transcriptase inverse: l'enzyme active du point de vue enzymatique, purifiée, clonée, a été préparée dans Escherichia coli à l'aide de la technique précédemment décrite par Hizi A., McGill C., Hugues G., Proc. Natl. Acad. Sci. USA 85, 1218-1222 (1988). Le dosage de la R.T. a été effectuée à l'aide de matrice d'ADN (au hasard et avec des séquences HIV) et de primer(s) marqué(s) (brins d'initiation) par radioactivité. Après formation de complexes entre la matrice d'ADN et les primers, la R.T. a été ajoutée et incubée. Diverses concentrations d'inhibiteur ont été ajoutées soit avant soie après que le, ou les complexes, aient été formés. L'initiation et l'élongation de la chaîne ont été étudiées à l'aide de P.A.G.E. à 20% [Shane D.L., Goodman M.F., Echols N.A., Nucleic Acids Res. 16, 1218-1222 (1988] et les produits analysés par autoradiographie. Différentes matrices et conditions ont été utilisées pour distinguer ces fonctions. En outre, de la R.T. disponible dans le commerce provenant du virus de myéloblastose aviaire a été également utilisée.
# (§2) Le dosage de l'effet des inhibiteurs sur la R.T. était le suivant: • A) On prépare un mélange réactionnel de […] contenant: • . ADN matrice 10⁻⁸M • . ADN primer 4 x 10⁻¹⁰M/ADN primer 5' [³²P] • . 2 »l de tampon HIV-RT ([10x] (500 mM Tris-HCl • . pH 7,8; 60 mM MgCl₂; 10 mM dithiothréitol; 500 mM KCl); et • . de l'eau bidistillée pendant […] à 37°C. • B) On ajoute 1 unité de HIV-RT (une unité correspond à l'activité enzymatique qui incorpore 1 nmol de [³H] TMP en produit insoluble dans l'acide en 10 mn à 37°C avec du poly(A)-(dT)₁₅ comme substrat) pendant 10 min à 37°C. • C) On ajoute un mélange de désoxy nucléotide triphosphates (dXTPs) contenant 0,25 mM de chaque dXTP pour un volume de mélange final de 20 »l pendant 5 minutes à 37°C. • D) Pour tester le ou les inhibiteurs, diverses concentrations de ces produits (sous un volume constant) sont ajoutées (selon Etape B) au mélange des dXTPs. Le mélange réactionnel est incubé à 37°C pendant […]. • E) On fait cesser la réaction par de l'EDTA 10 nM dans le formamide à 90%. • F) Des échantillons sont chauffés à 90°C pendant 5 mn et les produits séparés par électrophorèse sur gels de Polyacrylamide à 20% en présence d'urée. • G) Les variations dans l'élongation, la synthèse, etc... sont détectées par autoradiographie et testées par comparaison avec des "témoins" sans inhibiteur.
# Le mélange est incubé pendant 5 mn à 37°C. • dans le cas (c) l'enzyme, l'hybride primer-matrice et 2 des 4 désoxy-ribonucléotides sont ajoutés et incubés pendant 5 mn à 37°C.
# cellules ALEX et MT-4 = test: Cytotoxicity (cell doubling time, trypan blue exclusion); assay type: cell-based
# Text: (§3) Il a également été montré que les composés de l'invention sont moins toxiques que leurs analogues de base, en mesurant, à l'aide du microscope photonique, le temps de duplication cellulaire et l'exclusion du bleu trypan.
# [1] = as above; assay type: cell-based; conditions: human, alex and mt-4 cells; cytotoxic at concentrations exceeding the value; read-out: concentrations cytotoxiques
# Text: as §3
# [2] = system: glycosylation de gp120 ou gp41; test: Effect on viral glycoprotein synthesis (glycosylation) in infected cells; assay type: cell-based, HIV-1; conditions: for minimal effective concentration: Human immunodeficiency virus 1, read-out: concentration efficace sur la glycosylation
# Text: Effets de médicaments sur la synthèse de glycoprotéines: des cellules CEM ou MT-4 ont été infectées par HIV-1; 4 heures après l'infection, une moitié des cellules a été marquées avec [2³H]Man ou [6³H]GlcNAc à 2,5-5,9 »Ci. Les milieux ont été changés et de l'inhibiteur frais (potentiel) et 2,5 »Ci (ou 5 »Ci) de l'isotope approprié ont été ajoutés. Les cellules ont été lysées à trois et sept jours après l'infection et les lysats cellulaires ont été clarifiées par centrifugation à 12 000 g; qp120 et gp41 ont été l'une et l'autre isolées par immunoprécipitation sur colonnes et les produits, analysés sur gels de polyacrylamide à 12% et fluorographie [Kumarasamy R & Blough H.A., Biochem. Biophys. Res. Commun. 109, 1108-1115 (1982)]. Les virus ont été récoltés et purifiés par centrifugation à vitesse contrôlée sur gradients préformés de citrate de sodium ou métrazamide à 5-40%, et analysés de façon similaire.
# AMV-RT = test: AMV reverse transcriptase inhibition, primer extension, PAGE and autoradiography; assay type: biochemical, virus de myéloblastose aviaire; conditions: for effet sur la R.T. (AMV): qualitative
# Text: as §1, §2
# [3] = biological target: T2, DNA polymérase alpha de placenta humain (Homo sapiens, UniProt P09884); test: Effect on human DNA polymerase alpha; assay type: biochemical
# T2 construct: la DNA polymérase alpha de placenta humain; tissue Dr Olga Lavrik, Novosibirsk (gift); host or cells: human placenta
# [4] = biological target: T3, DNA polymérase alpha de foie de rat (Rattus norvegicus, UniProt O89042); test: Effect on rat DNA polymerase alpha; assay type: biochemical; conditions: partially purified enzyme; sensitive only above the value
# T3 construct: la DNA polymérase alpha de foie de rat partiellement purifiée; tissue Dr A M de Recondo, Villejuif (gift); host or cells: rat liver
# T3 sequence (O89042 1-1451): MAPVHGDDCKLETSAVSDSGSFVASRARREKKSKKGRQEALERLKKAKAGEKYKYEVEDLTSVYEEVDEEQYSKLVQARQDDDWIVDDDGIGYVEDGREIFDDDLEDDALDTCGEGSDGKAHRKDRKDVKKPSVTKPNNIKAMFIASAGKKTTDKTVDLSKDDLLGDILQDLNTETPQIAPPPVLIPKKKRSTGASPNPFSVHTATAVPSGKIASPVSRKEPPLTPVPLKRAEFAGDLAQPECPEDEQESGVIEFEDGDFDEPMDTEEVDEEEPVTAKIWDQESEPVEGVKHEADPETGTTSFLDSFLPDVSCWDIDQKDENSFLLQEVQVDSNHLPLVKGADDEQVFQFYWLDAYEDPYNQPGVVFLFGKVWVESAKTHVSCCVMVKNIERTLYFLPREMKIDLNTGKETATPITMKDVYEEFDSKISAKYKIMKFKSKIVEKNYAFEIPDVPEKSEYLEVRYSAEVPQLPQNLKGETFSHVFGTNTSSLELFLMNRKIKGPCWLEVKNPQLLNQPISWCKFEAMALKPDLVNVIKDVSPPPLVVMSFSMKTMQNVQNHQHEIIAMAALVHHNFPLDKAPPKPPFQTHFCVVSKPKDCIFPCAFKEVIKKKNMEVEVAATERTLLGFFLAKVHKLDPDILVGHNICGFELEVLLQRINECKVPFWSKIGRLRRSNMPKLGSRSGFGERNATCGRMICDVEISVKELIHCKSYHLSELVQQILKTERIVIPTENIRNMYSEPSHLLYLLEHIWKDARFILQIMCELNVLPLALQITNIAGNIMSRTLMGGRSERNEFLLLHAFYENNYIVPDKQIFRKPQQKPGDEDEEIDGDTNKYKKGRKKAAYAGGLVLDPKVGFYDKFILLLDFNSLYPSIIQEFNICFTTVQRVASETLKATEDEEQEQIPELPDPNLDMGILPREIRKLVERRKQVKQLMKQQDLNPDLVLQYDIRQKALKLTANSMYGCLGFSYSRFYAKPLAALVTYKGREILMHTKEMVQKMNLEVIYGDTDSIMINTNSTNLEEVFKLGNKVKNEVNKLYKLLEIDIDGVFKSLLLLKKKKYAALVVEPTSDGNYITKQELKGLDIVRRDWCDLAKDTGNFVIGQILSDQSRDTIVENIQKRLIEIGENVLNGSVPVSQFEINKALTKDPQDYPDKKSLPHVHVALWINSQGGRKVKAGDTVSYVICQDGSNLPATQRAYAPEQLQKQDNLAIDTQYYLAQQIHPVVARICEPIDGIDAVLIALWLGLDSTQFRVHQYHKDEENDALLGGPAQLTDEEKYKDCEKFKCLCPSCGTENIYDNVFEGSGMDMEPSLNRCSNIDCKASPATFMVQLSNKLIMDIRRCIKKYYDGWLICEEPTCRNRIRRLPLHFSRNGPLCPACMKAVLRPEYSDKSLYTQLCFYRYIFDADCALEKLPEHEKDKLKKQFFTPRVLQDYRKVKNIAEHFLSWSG
# [5] = biological target: association enzyme-matrice (HIV1-RT / hybride primer-matrice) (Human immunodeficiency virus type 1 group M subtype B, UniProt P03366); conditions: enzyme 0,15 nM à 1nM; aurothioglucose 0,1 »M à 100 »M
# Text: On aussi effectué la filtration de l'enzyme et de l'hybride primeur-matrice en présence de concentration croissante de l'aurothioglucose. Les conditions expérimentales sont celles décrites précédemment.
# [6] = biological target: T4, DNA polymérase I de Escherichia coli (Escherichia coli, UniProt P00582); test: Effect on E. coli DNA polymerase I; assay type: biochemical
# T4 construct: purchased BRL
# T4 sequence (P00582 whole entry): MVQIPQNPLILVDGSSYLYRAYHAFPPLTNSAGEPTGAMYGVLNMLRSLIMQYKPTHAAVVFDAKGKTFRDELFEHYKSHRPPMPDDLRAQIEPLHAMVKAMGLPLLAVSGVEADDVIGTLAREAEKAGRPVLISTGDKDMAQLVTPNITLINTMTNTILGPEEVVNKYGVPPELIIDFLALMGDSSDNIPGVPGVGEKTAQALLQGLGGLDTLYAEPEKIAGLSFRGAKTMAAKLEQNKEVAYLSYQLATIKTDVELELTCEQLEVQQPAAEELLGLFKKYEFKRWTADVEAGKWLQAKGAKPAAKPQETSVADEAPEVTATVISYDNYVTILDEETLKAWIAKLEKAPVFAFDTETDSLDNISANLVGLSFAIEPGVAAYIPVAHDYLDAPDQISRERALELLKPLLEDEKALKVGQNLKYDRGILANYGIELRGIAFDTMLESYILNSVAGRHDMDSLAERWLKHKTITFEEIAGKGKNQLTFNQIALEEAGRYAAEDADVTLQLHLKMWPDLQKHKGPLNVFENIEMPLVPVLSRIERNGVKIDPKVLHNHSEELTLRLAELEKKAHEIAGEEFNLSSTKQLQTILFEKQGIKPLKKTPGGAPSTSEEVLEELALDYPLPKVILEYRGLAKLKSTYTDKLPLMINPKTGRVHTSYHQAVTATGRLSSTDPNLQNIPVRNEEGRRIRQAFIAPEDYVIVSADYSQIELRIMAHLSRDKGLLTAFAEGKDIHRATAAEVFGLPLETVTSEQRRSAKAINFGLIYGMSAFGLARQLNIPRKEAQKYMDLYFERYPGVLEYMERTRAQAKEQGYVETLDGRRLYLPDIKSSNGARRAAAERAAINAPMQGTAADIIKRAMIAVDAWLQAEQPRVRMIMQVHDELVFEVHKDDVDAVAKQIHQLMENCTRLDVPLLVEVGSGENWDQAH
# T2 sequence (P09884 whole entry): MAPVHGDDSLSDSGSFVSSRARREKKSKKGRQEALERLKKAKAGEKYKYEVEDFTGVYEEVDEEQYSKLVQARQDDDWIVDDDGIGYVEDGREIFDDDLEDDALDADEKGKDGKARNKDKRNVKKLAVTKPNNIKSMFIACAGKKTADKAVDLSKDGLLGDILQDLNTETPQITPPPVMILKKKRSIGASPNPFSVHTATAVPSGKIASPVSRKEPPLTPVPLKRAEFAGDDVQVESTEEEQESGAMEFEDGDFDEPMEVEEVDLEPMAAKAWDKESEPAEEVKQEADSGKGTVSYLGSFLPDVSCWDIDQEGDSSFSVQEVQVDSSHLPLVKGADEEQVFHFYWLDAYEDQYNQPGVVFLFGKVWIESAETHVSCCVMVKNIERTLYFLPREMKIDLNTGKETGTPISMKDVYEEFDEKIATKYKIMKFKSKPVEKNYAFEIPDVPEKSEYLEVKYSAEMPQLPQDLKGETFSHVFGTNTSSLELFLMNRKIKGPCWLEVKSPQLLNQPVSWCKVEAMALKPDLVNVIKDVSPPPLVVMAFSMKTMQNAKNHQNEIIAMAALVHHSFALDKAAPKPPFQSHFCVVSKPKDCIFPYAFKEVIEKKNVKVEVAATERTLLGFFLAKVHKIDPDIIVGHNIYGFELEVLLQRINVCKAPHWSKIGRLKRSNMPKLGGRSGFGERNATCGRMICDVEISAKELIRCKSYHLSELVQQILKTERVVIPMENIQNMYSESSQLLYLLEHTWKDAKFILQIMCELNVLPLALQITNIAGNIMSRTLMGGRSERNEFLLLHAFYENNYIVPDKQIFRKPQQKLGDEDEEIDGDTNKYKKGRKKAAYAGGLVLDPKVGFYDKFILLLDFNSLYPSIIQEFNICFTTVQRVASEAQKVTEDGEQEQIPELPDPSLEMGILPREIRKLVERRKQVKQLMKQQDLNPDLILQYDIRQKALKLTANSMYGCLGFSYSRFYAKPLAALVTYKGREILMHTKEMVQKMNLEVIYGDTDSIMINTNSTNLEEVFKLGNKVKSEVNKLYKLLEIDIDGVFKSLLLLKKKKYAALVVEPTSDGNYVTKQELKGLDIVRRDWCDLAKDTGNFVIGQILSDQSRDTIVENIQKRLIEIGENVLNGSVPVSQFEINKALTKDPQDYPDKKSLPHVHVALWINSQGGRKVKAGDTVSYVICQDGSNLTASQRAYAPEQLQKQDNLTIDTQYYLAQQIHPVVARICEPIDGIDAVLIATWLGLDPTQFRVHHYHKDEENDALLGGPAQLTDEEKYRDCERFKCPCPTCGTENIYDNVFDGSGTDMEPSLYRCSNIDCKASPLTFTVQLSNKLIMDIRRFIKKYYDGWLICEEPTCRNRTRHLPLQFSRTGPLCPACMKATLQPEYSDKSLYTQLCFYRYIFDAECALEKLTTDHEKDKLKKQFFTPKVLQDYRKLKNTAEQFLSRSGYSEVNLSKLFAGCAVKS
# T2 sequence (Q14181 whole entry partner): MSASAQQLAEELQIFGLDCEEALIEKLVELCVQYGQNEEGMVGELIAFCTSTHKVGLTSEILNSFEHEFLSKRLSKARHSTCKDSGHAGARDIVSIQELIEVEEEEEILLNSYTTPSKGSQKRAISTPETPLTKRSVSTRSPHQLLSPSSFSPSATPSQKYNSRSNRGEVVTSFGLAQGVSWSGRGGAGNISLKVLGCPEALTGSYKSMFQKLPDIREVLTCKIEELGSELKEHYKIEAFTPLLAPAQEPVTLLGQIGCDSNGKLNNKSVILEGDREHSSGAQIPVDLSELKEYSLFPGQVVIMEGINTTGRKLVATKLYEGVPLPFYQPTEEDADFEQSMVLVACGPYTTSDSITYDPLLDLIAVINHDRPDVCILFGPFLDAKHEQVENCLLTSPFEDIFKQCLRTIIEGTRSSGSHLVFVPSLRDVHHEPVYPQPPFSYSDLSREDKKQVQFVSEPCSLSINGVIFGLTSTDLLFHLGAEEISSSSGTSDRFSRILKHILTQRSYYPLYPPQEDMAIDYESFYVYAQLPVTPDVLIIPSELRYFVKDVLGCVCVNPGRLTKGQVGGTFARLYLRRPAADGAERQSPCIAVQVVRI
# T2 sequence (P49642 whole entry partner): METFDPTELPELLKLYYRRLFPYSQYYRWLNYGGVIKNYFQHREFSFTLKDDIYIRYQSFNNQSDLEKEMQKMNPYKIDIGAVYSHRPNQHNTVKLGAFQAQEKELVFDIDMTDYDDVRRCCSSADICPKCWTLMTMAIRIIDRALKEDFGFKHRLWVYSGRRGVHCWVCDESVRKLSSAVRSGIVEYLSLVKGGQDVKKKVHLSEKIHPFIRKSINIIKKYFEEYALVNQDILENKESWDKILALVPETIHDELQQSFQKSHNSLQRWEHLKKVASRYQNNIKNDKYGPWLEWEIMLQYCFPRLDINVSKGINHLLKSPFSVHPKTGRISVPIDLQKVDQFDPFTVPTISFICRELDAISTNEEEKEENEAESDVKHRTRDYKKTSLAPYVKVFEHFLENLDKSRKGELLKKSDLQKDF
# T2 sequence (P49643 whole entry partner): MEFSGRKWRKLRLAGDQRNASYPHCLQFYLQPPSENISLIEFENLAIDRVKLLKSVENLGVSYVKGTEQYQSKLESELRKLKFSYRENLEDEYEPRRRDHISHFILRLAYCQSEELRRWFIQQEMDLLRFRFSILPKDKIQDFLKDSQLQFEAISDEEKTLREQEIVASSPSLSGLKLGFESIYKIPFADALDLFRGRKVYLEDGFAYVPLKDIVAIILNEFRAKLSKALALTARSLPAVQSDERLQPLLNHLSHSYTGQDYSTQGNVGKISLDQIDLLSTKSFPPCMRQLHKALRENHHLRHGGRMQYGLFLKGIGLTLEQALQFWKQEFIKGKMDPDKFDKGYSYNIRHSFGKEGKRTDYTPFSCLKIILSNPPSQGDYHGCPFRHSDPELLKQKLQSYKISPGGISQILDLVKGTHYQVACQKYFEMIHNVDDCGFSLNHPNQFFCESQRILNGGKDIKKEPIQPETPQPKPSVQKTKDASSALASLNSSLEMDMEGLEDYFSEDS
compound,measurement,setting,value
aurothiopropanol,effet inhibiteur sur la HIV1-RT,HIV-RT,inhibition; also recorded: effet inhibiteur
"OC[C@H]1S[C@@H](O)[C@H](O)[C@@H](O)[C@@H]1O [5-thioglucose, 5-bêta-D-thioglucose]",toxicité vis-à-vis des cellules,cellules ALEX et MT-4,trop toxiques
same,MCC,[1],> 2 mM
same,activité à l'encontre de la glycosylation de gp120 ou gp41,[2],actifs
same,minimal effective concentration,[2],~0.0035 µM
same,effet sur la R.T. (AMV),AMV-RT,n'ont pas présenté d'effet
same,effet inhibiteur sur la HIV1-RT,HIV-RT,n'ont pas présenté d'effet
same,effet inhibiteur sur la HIV1-RT,HIV-RT; listed as 5-bêta-D-thioglucose,aucun effet
"OC[C@H]1O[C@@H](S)[C@H](O)[C@@H](O)[C@@H]1O [1-thioglucose, 1-bêta-D-thioglucose]",toxicité vis-à-vis des cellules,cellules ALEX et MT-4,trop toxiques
same,MCC,[1],> 2 mM
same,activité à l'encontre de la glycosylation de gp120 ou gp41,[2],actifs
same,minimal effective concentration,[2],~0.0035 µM
same,effet sur la R.T. (AMV),AMV-RT,n'ont pas présenté d'effet
same,effet inhibiteur sur la HIV1-RT,HIV-RT,n'ont pas présenté d'effet
same,effet inhibiteur sur la HIV1-RT,HIV-RT; listed as 1-bêta-D-thioglucose,aucun effet
"Cc1cn([C@H]2C[C@H](N=[N+]=[N-])[C@@H](COP(=O)(O)OP(=O)(O)OP(=O)(O)O)O2)c(=O)[nH]c1=O [AZT phosphorylé, 3'-Azido-DTTP, reference compound]",effet inhibiteur sur la HIV1-RT,HIV-RT,inhibition
"OC[C@H]1O[C@@H]([S][Au])[C@H](O)[C@@H](O)[C@@H]1O [1-aurothioglucose, 1-bêta-D-aurothioglucose]",activité inhibitrice sur les DNA polymèrases humaines,[3]; in vitro,activité inhibitrice faible
same,concentration en drogue à laquelle la polymérase est sensible,[3]; insensitive at concentrations lower than or equal to the value,> 1 mM
same,effet sur l'élongation des chaînes d'ADN par l'AMV-RT,"AMV-RT; Figure 5, lane 2, added after polymerisation of six nucleotides",inhibition de l'élongation de la chaîne
same,concentrations nécessaires pour bloquer AMV-RT,"AMV-RT; compared with HIV-RT, Figure 2",concentrations supérieures
same,concentration en aurothioglucose à laquelle la polymérase est sensible,[4],> 100 µM
same,inhibition en utilisant des matrices d'ARN,"HIV-RT; RNA templates compared with DNA templates, Figure 3",résultats comparables
same,sensibilité de l'enzyme complexée à la matrice (b) et en phase d'élongation (c),HIV-RT; cases (b) and (c) compared,la même sensibilité
same,effets combinés de la zidovudine (AZT) et de l'aurothioglucose,HIV-RT; combined with zidovudine (AZT),additifs et qu'il existe une action synergique
same,quantité efficace pour bloquer le complexe HIV-R.T.-Substrat,"HIV-RT; complexe HIV-R.T.-Substrat à 40 nm, Figure 1",3 »m
same,diminution de la constante d'inhibition (Ki),"HIV-RT; free enzyme, case (a), compared with cases (b) and (c)",33%
same,activité par rapport à l'AZT triphosphate,HIV-RT; qualitative comparison,considérablement plus actif
same,association enzyme-matrice,[5],affaiblie
same,inhibition de la DNA-polymérase-1 d'Escherichia Coli,"[6]; Figure 6, autoradiogram",inhibition
same,concentration en aurothioglucose à laquelle la polymérase est sensible,[6]; sensitive above the value,> 50 µM
